Each structure is given as a SMILES string. Bounds are passed on as bounds.

IRAK4, sequence (Q9NWZ3 whole entry): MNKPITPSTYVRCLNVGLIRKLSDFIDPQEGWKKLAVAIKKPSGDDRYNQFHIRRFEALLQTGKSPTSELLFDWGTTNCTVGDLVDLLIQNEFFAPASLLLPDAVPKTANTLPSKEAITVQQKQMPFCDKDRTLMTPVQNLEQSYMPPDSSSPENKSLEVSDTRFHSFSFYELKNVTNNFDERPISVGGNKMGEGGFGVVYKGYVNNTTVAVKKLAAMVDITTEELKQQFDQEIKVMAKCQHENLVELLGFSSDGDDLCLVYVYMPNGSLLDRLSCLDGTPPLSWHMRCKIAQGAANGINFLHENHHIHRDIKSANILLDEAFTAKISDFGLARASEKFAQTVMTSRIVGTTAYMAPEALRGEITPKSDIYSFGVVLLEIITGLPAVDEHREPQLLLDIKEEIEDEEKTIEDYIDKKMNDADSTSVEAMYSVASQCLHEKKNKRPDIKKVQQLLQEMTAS

This assay addresses IRAK4 (Homo sapiens (Human), UniProt Q9NWZ3). Put plainly: In vitro IRAK4 phosphorylation activity assay. The class given is biochemical. Particulars: [γ-33P]-ATP, myelin basic protein substrate, 40 minutes at room temperature; categories. In a few lines:
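Radiometric filter-binding assay, no compound–kinase preincubation; 8 mM MOPS pH 7.0, 0.2 mM EDTA, 10 mM Mg acetate, 0.33 mg/mL myelin basic protein substrate, [γ-33P]-ATP. Reaction 40 min at room temperature, stopped with phosphoric acid, scintillation counting; IC50 reported in categories.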
The compound `O=C(Nc1nc(CCCC(=O)N2CCCCC2)cn1-c1ccccc1)c1cccc(-c2cn[nH]c2)c1` [Example 59, N-(4-(4-oxo-4-(piperidin-1-yl)butyl)-1-phenyl-1H-imidazol-2-yl)-3-(1H-pyrazol-4-yl)benzamide] came in with an IC50 below 50 nM.

With `COC[C@H]1CCCN1NC(=O)CCCc1cn(-c2ccccc2)c(NC(=O)c2cccc(-c3cn[nH]c3)c2)n1` [Example 54, (R)—N-(4-(4-((2-(methoxymethyl)pyrrolidin-1-yl)amino)-4-oxobutyl)-1-phenyl-1H-imidazol-2-yl)-3-(1H-pyrazol-4-yl)benzamide], the IC50 is below 50 nM.

The compound `CC1(C)CCN(C(=O)CCc2cn(-c3ccccc3)c(NC(=O)c3cccc(-c4cn[nH]c4)c3)n2)CC1` [Example 35, N-(4-(3-(4,4-dimethylpiperidin-1-yl)-3-oxopropyl)-1-phenyl-1H-imidazol-2-yl)-3-(1H-pyrazol-4-yl)benzamide] gave an IC50 below 50 nM.

Take `O=C(CCc1cn(-c2ccccc2)c(NC(=O)c2cccc(-c3cn[nH]c3)c2)n1)Nc1cnccn1` [Example 22, N-(4-(3-oxo-3-(pyrazin-2-ylamino)propyl)-1-phenyl-1H-imidazol-2-yl)-3-(1H-pyrazol-4-yl)benzamide]: the 50% inhibitory concentration (IC50) was above 100 nM.

For `Cn1cc(-c2cccc(C(=O)Nc3nc(CCCC(=O)N4CCC(C)(C)CC4)cn3-c3ccccc3)c2)cn1` [Example 167, N-(4-(4-(4,4-dimethylpiperidin-1-yl)-4-oxobutyl)-1-phenyl-1H-imidazol-2-yl)-3-(1-methyl-1H-pyrazol-4-yl)benzamide], the IC50 was below 50 nM.

Consider `CN1CCN(C(=O)CCCc2cn(-c3ccccc3)c(NC(=O)c3cccc(-c4cnn(C)c4)c3)n2)CC1` [Example 143, 3-(1-methyl-1H-pyrazol-4-yl)-N-(4-(4-(4-methylpiperazin-1-yl)-4-oxobutyl)-1-phenyl-1H-imidazol-2-yl)benzamide], for which the IC50 was below 50 nM.

The compound `O=C(Nc1nc(CCCCO)cn1-c1ccccc1)c1cccc(-c2cn[nH]c2)c1` [Example 111, N-(4-(4-hydroxybutyl)-1-phenyl-1H-imidazol-2-yl)-3-(1H-pyrazol-4-yl)benzamide] had an IC50 below 50 nM.

In turn, `Cn1cc(-c2cccc(C(=O)Nc3nc(CCCC(=O)NN4CCCC4)cn3-c3ccccc3)c2)cn1` [Example 151, 3-(1-methyl-1H-pyrazol-4-yl)-N-(4-(4-oxo-4-(pyrrolidin-1-ylamino)butyl)-1-phenyl-1H-imidazol-2-yl)benzamide] gave a concentration for half-maximal inhibition (IC50) below 50 nM.

As for `O=C(Nc1nc(CCCCN2CCCCC2)cn1-c1ccccc1)c1cccc(-c2cccc3[nH]ncc23)c1` [Example 257, 3-(1H-indazol-4-yl)-N-(1-phenyl-4-(4-(piperidin-1-yl)butyl)-1H-imidazol-2-yl)benzamide], the IC50 was below 50 nM.

Compound `COC[C@@H]1CCCN1C(=O)CCCCc1cn(-c2ccccc2)c(NC(=O)c2cccc(-c3cn[nH]c3)c2)n1` [Example 86, (S)—N-(4-(5-(2-(methoxymethyl)pyrrolidin-1-yl)-5-oxopentyl)-1-phenyl-1H-imidazol-2-yl)-3-(1H-pyrazol-4-yl)benzamide] yielded an IC50 below 50 nM.

In turn, `Nc1ccc(-c2cccc(C(=O)Nc3nc(CCCCCCN4CCCCC4)cn3-c3ccccc3)c2)cn1` [Example 275, 3-(6-aminopyridin-3-yl)-N-(1-phenyl-4-(6-(piperidin-1-yl)hexyl)-1H-imidazol-2-yl)benzamide] returned an IC50 below 50 nM.

Compound `O=C(Nc1nc(CCCCCC(=O)N2CCCC2)cn1-c1ccccc1)c1cccc(-c2ccc3[nH]ncc3c2)c1` [Example 240, 3-(1H-indazol-5-yl)-N-(4-(6-oxo-6-(pyrrolidin-1-yl)hexyl)-1-phenyl-1H-imidazol-2-yl)benzamide] displayed a 50% inhibitory concentration (IC50) below 50 nM.

Compound `Cn1cc(-c2cccc(C(=O)Nc3nc(CCCC(=O)NCCC(C)(C)O)cn3-c3ccccc3)c2)cn1` [Example 171, N-(4-(4-((3-hydroxy-3-methylbutyl)amino)-4-oxobutyl)-1-phenyl-1H-imidazol-2-yl)-3-(1-methyl-1H-pyrazol-4-yl)benzamide] registered a 50% inhibitory concentration (IC50) below 50 nM.

Turning to `COC[C@@H]1CCCN1NC(=O)Cc1cn(-c2ccccc2)c(NC(=O)c2cccc(-c3cn[nH]c3)c2)n1` [Example 44, (S)—N-(4-(2-((2-(methoxymethyl)pyrrolidin-1-yl)amino)-2-oxoethyl)-1-phenyl-1H-imidazol-2-yl)-3-(1H-pyrazol-4-yl)benzamide], the IC50 is above 100 nM.

`CNC(=O)CCCc1cn(C2CCCCC2)c(NC(=O)c2cccc(-c3cn[nH]c3)c2)n1` [Example 296, N-(1-cyclohexyl-4-(4-(methylamino)-4-oxobutyl)-1H-imidazol-2-yl)-3-(1H-pyrazol-4-yl)benzamide]: the half-inhibitory concentration (IC50) was below 50 nM.

Regarding `COC[C@H]1CCCN1NC(=O)Cc1cn(-c2ccccc2)c(NC(=O)c2cccc(-c3cn[nH]c3)c2)n1` [Example 45, (R)—N-(4-(2-((2-(methoxymethyl)pyrrolidin-1-yl)amino)-2-oxoethyl)-1-phenyl-1H-imidazol-2-yl)-3-(1H-pyrazol-4-yl)benzamide], the IC50 was in the range of 50 to 100 nM.

`Cn1cc(-c2cccc(C(=O)Nc3nc(CCCC(=O)NC4CC4)cn3-c3ccccc3)c2)cn1` [Example 141, N-(4-(4-(cyclopropylamino)-4-oxobutyl)-1-phenyl-1H-imidazol-2-yl)-3-(1-methyl-1H-pyrazol-4-yl)benzamide] yielded an IC50 below 50 nM.

Take `O=C(CCCCc1cn(-c2ccccc2)c(NC(=O)c2cccc(-c3cn[nH]c3)c2)n1)NC1CC1` [Example 88, N-(4-(5-(cyclopropylamino)-5-oxopentyl)-1-phenyl-1H-imidazol-2-yl)-3-(1H-pyrazol-4-yl)benzamide]: the IC50 was below 50 nM.

In turn, `O=C(Nc1nc(CCCCNc2ccccc2)cn1-c1ccccc1)c1cccc(-c2cn[nH]c2)c1` [Example 112, N-(1-phenyl-4-(4-(phenylamino)butyl)-1H-imidazol-2-yl)-3-(1H-pyrazol-4-yl)benzamide] showed an IC50 above 100 nM.

For the compound `O=C(Nc1nc(CCC(=O)N2CC[C@H](C(=O)O)C2)cn1-c1ccccc1)c1cccc(-c2cn[nH]c2)c1` [Example 26, (S)-1-(3-(2-(3-(1H-pyrazol-4-yl)benzamido)-1-phenyl-1H-imidazol-4-yl)propanoyl)pyrrolidine-3-carboxylic acid], the IC50 is above 100 nM.

On to `Cn1cc(-c2cccc(C(=O)Nc3nc(CCCCCCN4CCCCCC4)cn3-c3ccccc3)c2)cn1` [Example 223, N-(4-(6-(azepan-1-yl)hexyl)-1-phenyl-1H-imidazol-2-yl)-3-(1-methyl-1H-pyrazol-4-yl)benzamide], for which the half-inhibitory concentration (IC50) is below 50 nM.

In turn, `CN1CCN(C(=O)CCc2cn(-c3ccccc3)c(NC(=O)c3cccc(-c4cnn(C)c4)c3)n2)CC1` [Example 194, 3-(1-methyl-1H-pyrazol-4-yl)-N-(4-(3-(4-methylpiperazin-1-yl)-3-oxopropyl)-1-phenyl-1H-imidazol-2-yl)benzamide] returned a half-maximal inhibitory concentration (IC50) below 50 nM.

The compound `C[C@H]1CCCCN1C(=O)CCCc1cn(-c2ccccc2)c(NC(=O)c2cccc(-c3cn[nH]c3)c2)n1` [Example 62, (S)—N-(4-(4-(2-methylpiperidin-1-yl)-4-oxobutyl)-1-phenyl-1H-imidazol-2-yl)-3-(1H-pyrazol-4-yl)benzamide] gave an IC50 below 50 nM.

By IC50 is commonly meant the concentration that inhibits the measured activity by half. Read a high IC50 as weaker potency in that assay.

Source of the values: US12534452B2, “N-(1H-imidazol-2-yl)benzamide compound and pharmaceutical composition comprising the same as active ingredient” (KAINOS MEDICINE, INC., priority 2019, dated 2026).
